Measured values taken from US20110269825A1, “Modified Thromboxane A2 Receptor Promoter Sequence” (priority 2008, published 2011).
Marks after values point to notes of the source that are not given here.

Assays:
HEL 92.1.7 cells = test: Dual luciferase genetic reporter assay of promoter-directed luciferase expression in HEL cells; type: cell-based, human; details: for Increase in luciferase activity relative to Prm1 (−8500): 5′ deletion or site-directed mutation of Prm1; for Decrease in luciferase expression relative to Prm1HΔ (−6320): site-directed mutation within Prm1HΔ; for Luciferase expression compared with another construct, in words: comparator as named in the words or parent fragment; for Decrease in luciferase expression relative to Prm1B (−7962): 5′ deletion or site-directed mutation of Prm1B
Procedure: HEL and EA.hy 926 cells were co-transfected with the various pGL3Basic-recombinant plasmids (2 mg), encoding firefly luciferase, along with pRL-TK (200 ng), encoding renilla luciferase, using DMRIE-C® transfection reagent. HEK293, WI-38, and 1° hAoSMCs were co-transfected with the pGL3Basic-recombinant plasmids (2 mg), along with pRL-TK (200 ng), using Effectene transfection reagent. In all cases, cells co-transfected with pRL-TK (200 ng) in the presence of either the pGL3Control vector (firefly luciferase gene under the control of the SV40 promoter; 2 mg) or the promoter-less pGL3Basic empty vector (2 mg), which served as positive and negative controls, respectively. Firefly and renilla luciferase expression was assayed some 48 h post-transfection using the Dual-Luciferase Reporter Assay System™, as described (Coyle et al., 2005). Relative firefly to renilla luciferase activity (arbitrary units) was calculated as a ratio and was expressed in relative luciferase units (RLU). To investigate the effect of over-expression of exon 5 (+ or −) or KTS (+ or −) isoforms of WT1 on Prm1-directed gene expression, HEL cells were co-transfected with either pGL3b:Prm1 or pGL3b:Prm1D (1.5 μg) plus 200 ng of pRL-TK along with either pcDNA3:WT1 (+/+), pcDNA3:WT1 (+/−), pcDNA3:WT1 (−/+), pcDNA3:WT1 (−/−) (0.5 μg), or as a control, pcDNA3 (0.5 μg). Cells were harvested 48 h post-transfection and assayed for luciferase activity, as above, or subjected to western blot or RT-PCR analysis. The plasmids pcDNA3:WT1 (+/+), pcDNA3:WT1 (+/−), pcDNA3:WT1 (−/+) and pcDNA3:WT1 (−/−) were generously donated by Dr. Charles T. Roberts JR, Oregon National Primate Research Center, Oregon, USA and have been previously described (Tajinda et al., 1999). For PMA studies, approximately 32 h post-transfection, the medium was supplemented with PMA (100 nM), with PMA (100 nM) and PD98059 (10 μM) or, as a control, with vehicle [0.1% (v/v) DMSO]. After 16 h, cells were assayed for firefly and renilla luciferase using the Dual-Luciferase Reporter Assay System™ as previously described (Coyle et al., 2005). The plasmid pCMV5-NAB1, containing the entire coding sequence for NAB1, was generously donated by Dr. Gerald Thiel, University of Saarland Medical Center, Homburg, Germany, and has been described previously (Thiel et al., 2000). To investigate the effect of over-expression of NAB1 on the PMA-mediated induction of Prm1-directed gene expression, HEL cells were transiently co-transfected with pGL3b:Prm1 (2 μg) plus pRL-TK (200 ng) along with either pCMV5 (control) or pCMV:NAB1 (1 μg). Cells were harvested 48 h post-transfection and assayed for luciferase activity, as above.

[1] = system: Prm1-directed luciferase expression; test: Effect of PMA, PD98059 or Vitamin D3 on Prm1-directed luciferase expression in HEL cells; type: cell-based, human
Procedure: HEL and EA.hy 926 cells were co-transfected with the various pGL3Basic-recombinant plasmids (2 mg), encoding firefly luciferase, along with pRL-TK (200 ng), encoding renilla luciferase, using DMRIE-C® transfection reagent. HEK293, WI-38, and 1° hAoSMCs were co-transfected with the pGL3Basic-recombinant plasmids (2 mg), along with pRL-TK (200 ng), using Effectene transfection reagent. In all cases, cells co-transfected with pRL-TK (200 ng) in the presence of either the pGL3Control vector (firefly luciferase gene under the control of the SV40 promoter; 2 mg) or the promoter-less pGL3Basic empty vector (2 mg), which served as positive and negative controls, respectively. […] Relative firefly to renilla luciferase activity (arbitrary units) was calculated as a ratio and was expressed in relative luciferase units (RLU). To investigate the effect of over-expression of exon 5 (+ or −) or KTS (+ or −) isoforms of WT1 on Prm1-directed gene expression, HEL cells were co-transfected with either pGL3b:Prm1 or pGL3b:Prm1D (1.5 μg) plus 200 ng of pRL-TK along with either pcDNA3:WT1 (+/+), pcDNA3:WT1 (+/−), pcDNA3:WT1 (−/+), pcDNA3:WT1 (−/−) (0.5 μg), or as a control, pcDNA3 (0.5 μg). […] The plasmid pCMV5-NAB1, containing the entire coding sequence for NAB1, was generously donated by Dr. Gerald Thiel, University of Saarland Medical Center, Homburg, Germany, and has been described previously (Thiel et al., 2000). To investigate the effect of over-expression of NAB1 on the PMA-mediated induction of Prm1-directed gene expression, HEL cells were transiently co-transfected with pGL3b:Prm1 (2 μg) plus pRL-TK (200 ng) along with either pCMV5 (control) or pCMV:NAB1 (1 μg).

Molecule: Prm1^GC*^(−8281): Prm1 with GC element at −8281 mutated (SEQ ID NO:11) (DNA GCCCGGTTCCCGCCGGA; expressed or natural sequence; listed as Homo sapiens)
- Increase in luciferase activity relative to Prm1 (−8500) (HEL 92.1.7 cells; HEL): 1.9 fold

Molecule: Prm1HΔ^NF-E2/AP1(−6080)*: Prm1HΔ with NF-E2/AP1 element at −6080 mutated (SEQ ID NO:33) (DNA CCAGACACACTCAGTTTCCCT; expressed or natural sequence; listed as Homo sapiens)
- Decrease in luciferase expression relative to Prm1HΔ (−6320) (HEL 92.1.7 cells; HEL): reduced luciferase activity

Molecule: Prm1BΔGata/Ets^Ets(−7805)*: Prm1BΔGata/Ets with Ets element at −7805 mutated (SEQ ID NO:21) (DNA GCCCCACATCACCCTCC; expressed or natural sequence; listed as Homo sapiens)
- Luciferase expression compared with another construct, in words (HEL 92.1.7 cells; HEL): did not significantly affect the level of luciferase activity

Molecule: Prm1HΔ^Sp1/Egr1(−6022)*: Prm1HΔ with Sp1/Egr1 element at −6022 mutated (SEQ ID NO:35) (DNA TCTGCCCTAACCCAGCCCT; expressed or natural sequence; listed as Homo sapiens)
- Decrease in luciferase expression relative to Prm1HΔ (−6320) (HEL 92.1.7 cells; HEL): 1.8 fold

Molecule: Prm1^GC*^(−8345): Prm1 with GC element at −8345 mutated (SEQ ID NO:9) (DNA TGCCCCTGACCCCAC; expressed or natural sequence; listed as Homo sapiens)
- Increase in luciferase activity relative to Prm1 (−8500) (HEL 92.1.7 cells; HEL): 2.0 fold

Molecule: Prm1HΔ^Sp1/Egr1(−6294)*: Prm1HΔ with Sp1/Egr1 element at −6294 mutated (SEQ ID NO:25) (DNA CGAGGAACATGGCCA; expressed or natural sequence; listed as Homo sapiens)
- Decrease in luciferase expression relative to Prm1HΔ (−6320) (HEL 92.1.7 cells; HEL): 1.3 fold

Molecule: Prm1HΔ^Sp1/Egr1(−6278)*: Prm1HΔ with Sp1/Egr1 element at −6278 mutated (SEQ ID NO:27) (DNA CGCAGGGTGTATGGGGCTG; expressed or natural sequence; listed as Homo sapiens)
- Decrease in luciferase expression relative to Prm1HΔ (−6320) (HEL 92.1.7 cells; HEL): reduced luciferase activity

Molecule: C=C1/C(=C\C=C2/CCC[C@]3(C)[C@@H]([C@H](C)CCCC(C)(C)O)CC[C@@H]23)C[C@@H](O)C[C@@H]1O [Vitamin D3, 1α, 25-dihydroxy-vitamin D3]
- Effect on luciferase expression directed by Prm1K ([1]; 80 nM Vitamin D3, 24 h or 30 h): no significant effect on luciferase expression directed by Prm1K
- Increase in Prm1-directed luciferase expression ([1]; 80 nM Vitamin D3, 30 h): 1.6 fold

Molecule: Prm1B^GATA(−7890)*: Prm1B with GATA element at −7890 mutated (SEQ ID NO:17) (DNA CTTGGTAGCTCAG; expressed or natural sequence; listed as Homo sapiens)
- Decrease in luciferase expression relative to Prm1B (−7962) (HEL 92.1.7 cells; HEL): 1.8 fold

Molecule: Prm1^GC*^(−7831): Prm1 with GC element at −7831 mutated (SEQ ID NO:15) (DNA TCACTGTCCTCTCATCT; expressed or natural sequence; listed as Homo sapiens)
- Increase in luciferase activity relative to Prm1 (−8500) (HEL 92.1.7 cells; HEL): 2.1 fold

Molecule: Prm1D^GC*^(−6717): Prm1D with GC element at −6717 mutated (SEQ ID NO:23) (DNA TCTGTCCTATCACCCCA; expressed or natural sequence; listed as Homo sapiens)
- Increase in luciferase expression relative to Prm1D (−6848) (HEL 92.1.7 cells; HEL, 5′ deletion or site-directed mutation of Prm1D): 4.8 fold

Molecule: Prm1B^Ets(−7870)*: Prm1B with Ets element at −7870 mutated (SEQ ID NO:19) (DNA GACAGGTGAAGTGGGGA; expressed or natural sequence; listed as Homo sapiens)
- Decrease in luciferase expression relative to Prm1B (−7962) (HEL 92.1.7 cells; HEL): 2.2 fold

Molecule: Prm1HΔ^Sp1/Egr1(−6007)*: Prm1HΔ with Sp1/Egr1 element at −6007 mutated (SEQ ID NO:37) (DNA CCCTCGCAATACCCTCGG; expressed or natural sequence; listed as Homo sapiens)
- Decrease in luciferase expression relative to Prm1HΔ (−6320) (HEL 92.1.7 cells; HEL): 1.5 fold

Molecule: Prm1I^GC*^(−6206): Prm1I with GC element at −6206 mutated (SEQ ID NO:29) (DNA CAGCGGCCTACACCCGT; expressed or natural sequence; listed as Homo sapiens)
- Increase in luciferase activity relative to Prm1I (−6258) (HEL 92.1.7 cells; HEL, 5′ deletion or mutation of Prm1I): 1.3 fold

B1: Prm1D^WT-1(a, b, x)*: Prm1D-derived promoter with mutations at −6717, −6206 and −6800 (SEQ ID NO:124) (nucleic acid, listed as Homo sapiens)
DNA: GCTCCAAAGCCACCTCCGAGCCTCCTCAAGAGACCCTCCCATGCGATGCCACCACCCCAGCCCTCCCGGCTCACCTGCTCTGGGACCACCTTTCTCAGTCTGGCTGTGTCGTCTGGTGCACCCCCCATCCCTCTGTCCTATCACCCCACCCCTGGAAGGGGCCTCAAATATGTCCTGTATGTATTAAGCAGGGCATACTACTACTGTGTGCCGCGTTCCAGCGCACCCAGTGAATTTGGAGCCCTGGAGTCTGGGCGACCCCCGGGAGCCGATCCGCCTGGACCTGCCCCGCCCCCTCCAGGCCTTGGGTGCTGCCCAGATGGTGAATAATGCGGGCCTGGCGGCGGGAGCGCCGGGAAGAGGCCTGGCAGGGCGCTGGGCGGCTGGAGGGGCTGAGGCTCCCGAGGAAGCGCCCCTGCCACCCCTACGCGGGCCATTGCATCCCTGCCACCGGTGGCCTGGGGGTCCCAAGGGCGCCGCCTTCCCCAGAAGGCTGTAGGGTGTCCCGGCGTGCGGGGGGCACCCACTGACTCCAAGTCAGCCAGGCCCGGGCCCGAGGGGCGTGGCCAGCGCAGGGTGGGCGGGGCTGATGAGAGACAGCGGGAGACAGAGACTGGACGGAGAGAGCGAGCCGCGGGCTGCCAGCGGCCTACACCCGTCCCAGCTCGGCTTAGCCCCCGCGGACCCCTCCAGGCCGCGACCCCAGGGCGTCCTGTGCCGCCACGCCCTCCATCTGTGTGGGTCCTCTGCTGGGCCCGCCCCTGGTCACAGCCAGACTGACTCAGTTTCCCTGGGAGGTCCCGCTCGAGCCCGTCCTTCCCCTCCCTCTGCCCGCCCCCAGCCCTCGCCCCACCCTCGGCGCCCGCACATCTGCCTGCTCAGCTCCAGACGGCGCCCGGACCCCCGGGCGCGGGATCCAGCCAGGTGGGAGCCCCGCAGATGAGGTCTCTGAAG
- Statistical significance of luciferase expression vs Prm1D^WT-1(a, b)* (HEL 92.1.7 cells; HEL): *** (p<0.001)
- Mean firefly relative to renilla luciferase activity (HEL 92.1.7 cells; HEL cells, co-transfected with pRL-TK, 48 h post-transfection): 38.26 RLU
- Luciferase expression compared with another construct, in words (HEL 92.1.7 cells; HEL): an even stronger promoter for driving luciferase expression relative to Prm1D^WT1(a)*^(b)*
- Statistical significance of luciferase expression vs Prm1D (HEL 92.1.7 cells; HEL, ↑ = increase): *** (p<0.001)
